Key:
[1] = tested on: ABCA1 protein; experiment: Detection of upregulation of ABCA1 protein in cells (ApoA-I binding, high content imaging); format: cell-based; settings: THP-1 macrophage cells; for EC50: 24 hrs compound incubation, read-out: EC50 [μM] ABCA1 protein increasing efficacy; for % increase of ABCA1 at 3 μM: compound at 3 μM, 24 hrs
Method: The ability of compounds of the invention to increase the level of ABCA1 protein is determined in replicate cultures of THP-1 macrophage cells in 96-well microplates. Cells are plated at an initial density of 100,000 cells/well in 100 μl medium and differentiated to adherent macrophages with the addition of PMA (100 nM) for 68 hrs in 10% fetal bovine serum, 3 μl/L of b-mercaptoethanol, RPMI-1640 medium. Then, cells are incubated with RPMI-1640 medium containing 1% FCS, 25 μg/ml acetylated LDL, for 24 hours at 37° C. Following incubation with acetylated LDL, cells are washed twice with 50 μl PBS and incubated with 100 μl of RPMI-1640 medium containing the compound of interest solubilized in DMSO for an additional 24 hrs. The final DMSO concentration in presence of cells is maintained at 0.5%. ApoA-I binding assay using High Content Image Analysis is initiated by replacing with fresh medium, RPMI without Phenol Red, 0.2% BSA containing AlexaFluor®647 labeled ApoA-I for 2 h/37° C./5% CO2. Then, cells are fixed with 4% Formaldehyde in PBS (15 min, RT). Following Nuclei are stained with Hoechst solution (3 μM PBS) and Cytoplasm with Cell Mask Blue (2 μg/ml PBS), 15 min, RT. Finally the stained cells are fixed with a second round of formaldehyde treatment. Fixed stained cells are washed and kept in PBS at 4° C. and can be read immediately until one month after preparation.
The Alexa Fluor 647-labeled Apolipoprotein A-I (20 nM) was prepared as follows: Human recombinant Apolipoprotein A-I (ApoA-I) was exchanged to a buffer of 0.02 M NaHCO3 at pH 8.2 on an NAP desalting column (GE Healthcare) and brought to a concentration to 40 μM (1.13 mg/ml) by adjustment with the same buffer. The ApoA-I was fluorescently labeled by incubation with Alexa Fluor carboxylic acid succimidyl ester (Alexa Fluor 647, Invitrogen A-20006) at a 2:1 molar ratio (Alexa to ApoA-I) for 1 h under shaking at RT. The remaining unconjugated label was removed by buffer exchange to 0.02M NaHCO3 at pH 8.2.
Imaging and data collection were performed on an OPERA confocal microplate imaging reader using a 20× water immersion objective and UV360 or 405 laser to identify the cell nuclei and a 635 laser to identify the fluorescent ApoA-I. Eight fields of view are captured per well. Image capture and analysis was performed with the Acapella software. Background fluorescence detected in control wells without ApoA-I was subtracted.
Using XLfit3 program (ID Business Solutions Ltd. UK), the model 205 for Dose Response One Site is used to calculate the EC50 values. […] More particularly, the compounds of the present invention have EC50 values in a range of 0.1 μM to 3 μm.

[2] = biological target: T1, human CB1 receptor (Homo sapiens, UniProt P21554); experiment: CB1 receptor affinity ([3H]-CP-55,940 displacement, HEK cell membranes); format: binding; settings: displacement of [3H]-CP-55,940 at 10 μM; read-out: CB1 receptor affinity [% inhibition @ 10 μM]
T1 construct: expressed in transfected cells; host or cells: human embryonic kidney (HEK) cells, Semliki Forest Virus system, membrane preparations
T1 sequence (P21554 whole entry): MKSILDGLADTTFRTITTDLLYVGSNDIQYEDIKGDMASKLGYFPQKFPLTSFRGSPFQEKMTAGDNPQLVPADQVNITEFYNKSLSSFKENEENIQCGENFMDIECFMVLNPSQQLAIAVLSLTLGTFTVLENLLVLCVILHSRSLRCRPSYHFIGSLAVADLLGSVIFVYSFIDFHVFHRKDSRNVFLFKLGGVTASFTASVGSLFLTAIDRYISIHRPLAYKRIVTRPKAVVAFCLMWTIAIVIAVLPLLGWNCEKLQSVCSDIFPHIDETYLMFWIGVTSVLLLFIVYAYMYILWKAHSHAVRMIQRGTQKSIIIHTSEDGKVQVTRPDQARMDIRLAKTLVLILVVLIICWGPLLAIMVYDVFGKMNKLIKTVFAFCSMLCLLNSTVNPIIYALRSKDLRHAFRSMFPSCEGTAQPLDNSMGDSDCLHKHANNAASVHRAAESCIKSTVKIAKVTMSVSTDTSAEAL
Method: (§1) The affinity of the compounds of the invention for cannabinoid receptors was determined using membrane preparations of human embryonic kidney (HEK) cells in which the human CB1 receptor is transiently transfected using a Semliki Forest Virus system in conjunction with [3H]-CP-55,940 as radioligand. After incubation of freshly prepared cell membrane preparation with the [^3H]-ligand, with or without addition of compounds of the invention, separation of bound and free ligand was performed by filtration over glass fiber filters. Radioactivity on the filter was measured by scintillation counting.
(§2) The ability of the compounds to displace the radioligand [^3H]-CP-55,940 was measured at a concentration of 10 μM and values provided as [% inhibition @ 10 μM] both for the CB1 and CB2 receptor assay, The lower % inhibition is, the lower the likelihood of side effects based on CB1 or CB2 receptor inhibition is.

[3] = biological target: T2, human CB2 receptor (Homo sapiens, UniProt P34972); experiment: CB2 receptor affinity ([3H]-CP-55,940 displacement, HEK cell membranes); format: binding; settings: displacement of [3H]-CP-55,940 at 10 μM
T2 construct: expressed in transfected cells; host or cells: human embryonic kidney (HEK) cells, Semliki Forest Virus system, membrane preparations
T2 sequence (P34972 whole entry): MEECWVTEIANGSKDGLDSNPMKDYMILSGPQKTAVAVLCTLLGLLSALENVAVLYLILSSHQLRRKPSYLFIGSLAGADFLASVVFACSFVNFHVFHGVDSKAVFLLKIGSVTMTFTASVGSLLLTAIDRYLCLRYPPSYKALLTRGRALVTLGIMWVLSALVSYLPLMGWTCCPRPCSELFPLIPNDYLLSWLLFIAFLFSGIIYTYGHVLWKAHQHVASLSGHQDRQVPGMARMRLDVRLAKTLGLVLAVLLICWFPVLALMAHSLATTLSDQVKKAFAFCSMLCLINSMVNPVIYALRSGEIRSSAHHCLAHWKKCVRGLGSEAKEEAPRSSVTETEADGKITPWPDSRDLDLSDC
Method: as §1, with “cannabinoid CB2” for “cannabinoid”, “CB2” for “CB1”, “[^3H]-CP-55,940” for “[3H]-CP-55,940”
as §2

| SMILES | EC50 [1] [µM] | inhibition at 10 µM [2] [%] | inhibition at 10 µM [3] [%] | % increase of ABCA1 at 3 μM [1] [%@ 3 μM] |
| --- | --- | --- | --- | --- |
| O=C(NN1CCC(O)CC1)c1cnc(OCC(F)(F)F)c(C2CCCCC2)c1 [Example 12, 5-cyclohexyl-N-(4-hydroxypiperidin-1-yl)-6-(2,2,2-trifluoroethoxy)-3-pyridinecarboxamide] | 1.48 | 8 | 6 | – |
| CN(NC(=O)c1cnc(OCC2CC2)c(C2CC2)c1)c1ccc(F)cc1 [Example 41, 5-cyclopropyl-6-cyclopropylmethoxy-nicotinic acid N′-(4-fluoro-phenyl)-N′-methyl-hydrazide] | 1.1 | 29 | 38 | – |
| CN(NC(=O)c1cnc(OCC(F)(F)F)c(C2CC2)c1)c1ccc(F)cc1 [Example 34, 5-cyclopropyl-6-(2,2,2-trifluoro-ethoxy)-nicotinic acid N′-(4-fluoro-phenyl)-N′-methyl-hydrazide] | 0.83 | 15 | 8 | – |
| CN(NC(=O)c1cnc(OCC(F)(F)F)c(-c2ccc(Cl)cc2)c1)c1ccccc1 [Example 5, 5-(4-chloro-phenyl)-6-(2,2,2-trifluoro-ethoxy)-3-pyridinecarboxylic acid N′-methyl-N′-phenyl-hydrazide] | – | 45 | 31 | >45 |
| O=C(NN1CCC(O)CC1)c1cnc(OC2CCC2)c(-c2ccc(Cl)cc2)c1 [Example 11, 5-(4-chlorophenyl)-6-cyclobutoxy-N-(4-hydroxypiperidin-1-yl)-3-pyridinecarboxamide] | 0.18 | 14 | -8 | – |
| CN(NC(=O)c1cnc(OCC(F)(F)F)c(-c2ccc(Cl)cc2)c1)c1ccc(Cl)nn1 [Example 8, 5-(4-chlorophenyl)-N′-(6-chloropyridazin-3-yl)-N′-methyl-6-(2,2,2-trifluoroethoxy)-3-pyridinecarboxylic acid hydrazide] | – | 38 | 18 | >45 |
| O=C(NN1CCOCC1)c1cnc(OCC(F)(F)F)c(-c2ccc(Cl)cc2)c1 [Example 2, 5-(4-chlorophenyl)-N-morpholino-6-(2,2,2-trifluoroethoxy)-3-pyridinecarboxamide] | – | 43 | 8 | >45 |
| CN(NC(=O)c1cnc(OC2CCC2)c(C2CC2)c1)c1ccc(C#N)cc1 [Example 55, 6-cyclobutoxy-5-cyclopropyl-nicotinic acid N′-(4-cyano-phenyl)-N′-methyl-hydrazide] | – | 27 | 18 | >45 |
| O=C(NN1CC(O)C1)c1cnc(OCC(F)(F)F)c(-c2ccc(Cl)cc2)c1 [Example 29, 5-(4-chlorophenyl)-N-(3-hydroxyazetidin-1-yl)-6-(2,2,2-trifluoroethoxy)-3-pyridinecarboxamide] | – | 44 | -10 | >45 |
| CN(NC(=O)c1cnc(OCC(F)(F)F)c(C2CCCCC2)c1)c1ccc(Cl)nn1 [Example 22, N′-(6-chloropyridazin-3-yl)-5-cyclohexyl-N′-methyl-6-(2,2,2-trifluoroethoxy)-3-pyridinecarboxylic acid hydrazide] | 0.98 | 28 | -9 | – |
| O=C(NN1CCC(O)CC1)c1cnc(OCC2CC2)c(-c2ccc(Cl)cc2)c1 [Example 10, 5-(4-chlorophenyl)-6-(cyclopropylmethoxy)-N-(4-hydroxypiperidin-1-yl)-3-pyridinecarboxamide] | 1.03 | 34 | 2 | – |
| N#Cc1ccc(-c2cc(C(=O)NN3CCC(O)CC3)cnc2OCC(F)(F)F)cc1 [Example 36, 5-(4-cyano-phenyl)-N-(4-hydroxy-piperidin-1-yl)-6-(2,2,2-trifluoro-ethoxy)-nicotinamide] | 1.86 | 10 | -4 | – |
| O=C(NNCC(F)(F)F)c1cnc(OCC(F)(F)F)c(-c2ccc(Cl)cc2)c1 [Example 1, 5-(4-chlorophenyl)-6-(2,2,2-trifluoroethoxy)-N′-(2,2,2-trifluoroethyl)-3-pyridinecarboxylic acid hydrazide] | – | 42 | 10 | >45 |
| CS(=O)(=O)N1CCN(NC(=O)c2cnc(OCC(F)(F)F)c(-c3ccc(Cl)cc3)c2)CC1 [Example 13, 5-(4-chlorophenyl)-N-(4-(methylsulfonyl)piperazin-1-yl)-6-(2,2,2-trifluoroethoxy)-3-pyridinecarboxamide] | 0.33 | 23 | 1 | – |
| CN(NC(=O)c1cnc(OCC(F)(F)F)c(C2CCCC2)c1)c1ccccc1 [Example 18, 5-cyclopentyl-N′-methyl-N′-phenyl-6-(2,2,2-trifluoroethoxy)-3-pyridinecarboxylic acid hydrazide] | – | 41 | 18 | >45 |
| CN(NC(=O)c1cnc(OCC(F)(F)F)c(C2CC2)c1)c1ccc(C#N)cc1 [Example 54, 5-cyclopropyl-6-(2,2,2-trifluoro-ethoxy)-nicotinic acid N′-(4-cyano-phenyl)-N′-methyl-hydrazide] | – | 36 | 17 | >45 |
| O=C(NN1CCN(CCO)CC1)c1cnc(OCC(F)(F)F)c(-c2ccc(Cl)cc2)c1 [Example 25, 5-(4-chlorophenyl)-N-(4-(2-hydroxyethyl)piperazin-1-yl)-6-(2,2,2-trifluoroethoxy)-3-pyridinecarboxamide] | – | 14 | -18 | >45 |
| O=C(NN1CC(CN2CCOCC2)OC1=O)c1cnc(OCC(F)(F)F)c(-c2ccc(Cl)cc2)c1 (stereo not drawn) [Example 7, 5-(4-chlorophenyl)-N-(5-(morpholinomethyl)-2-oxooxazolidin-3-yl)-6-(2,2,2-trifluoroethoxy)-3-pyridinecarboxamide] | – | 36 | -4 | >45 |
| O=C(NN1CCC(O)CC1)c1cnc(OC2CCC2)c(-c2ccco2)c1 [Example 50, 6-cyclobutoxy-5-furan-2-yl-N-(4-hydroxy-piperidin-1-yl)-nicotinamide] | 0.16 | 15 | 6 | – |
| N#Cc1ccc(-c2cc(C(=O)NN3CCOCC3)cnc2OCC(F)(F)F)cc1 [Example 37, 5-(4-cyano-phenyl)-N-morpholin-4-yl-6-(2,2,2-trifluoro-ethoxy)-nicotinamide] | 1.32 | 47 | -8 | – |
| NNC(=O)c1cnc(OCC(F)(F)F)c(-c2ccc(Cl)c(F)c2)c1 [Example 9, 5-(4-chloro-3-fluorophenyl)-6-(2,2,2-trifluoroethoxy)-3-pyridinecarboxylic acid hydrazide] | – | 11 | -2 | >45 |

Source: patent publication US8648099B2 (Hoffmann-La Roche Inc., priority 2011, dated 2014)
